Measured values reported in patent US7183320B2, “Benzoylsulfonamides and sulfonylbenzamidines for use as antitumour agents” (Eli Lilly and Company, priority 2002, dated 2007).

tested on: HCT116 colon carcinoma cells; assay: HCT116 colon carcinoma cell growth inhibition (WST-1, 72 hr); type: cell-based, human; settings: 72 hr exposure
Description: HCT116 Colon Carcinoma Cell Growth Inhibition
HCT116 colon carcinoma cells were grown monolayer culture in RPMI 1640 medium supplemented with 10% fetal bovine serum and 1% penicillin-streptomycin (GibcoBRL, Grand Island, N.Y.). HCT116 cells in exponential growth phase were exposed to various concentrations of the test compounds at 37° C. for 72 hr in 5% carbon dioxide/air. After exposure to the agent, the cells were washed with 0.9% phosphate buffered saline. Growth inhibition was determined using WST-1 cell proliferation reagent as described above. The results are expressed as the growth fraction of treated cells compared with control cultures. Representative compounds of the present invention were tested for efficacy against the human colon HCT116 tumor cells.

Row | IC50 [µM] | Compound
1 | 16 | CSc1ccc(-c2ccc(S(=O)(=O)NC(=O)c3ccc(Cl)cc3Cl)cc2)cc1 [Example 108, N-[2,4-dichlorobenzoyl]-4-(1-methylsulfanylo-phen-4-yl)phenylsulfonamide]
2 | 10.1 | COC(=O)c1ccc(S(=O)(=O)NC(=O)c2ccc(Cl)cc2Br)cc1 [Example 30, N-[2-bromo-4-chlorobenzoyl]-4-methyoxycarbonyl-phenylsulfonamide]
3 | 25.1 | CC(=O)c1cccc(-c2ccc(S(=O)(=O)NC(=O)c3ccc(Cl)cc3Cl)cc2)c1 [Example 109, N-[2,4-dichlorobenzoyl]-4-3′-acetyl-biphenylsulfonamide]

same assay, conditions: Homo sapiens, HCT-116, 72 hr exposure

Row | IC50 [µM] | Compound
4 | 15 | O=C(NS(=O)(=O)c1ccc(Cl)cc1)c1ccc(Cl)cc1Cl [Example 111, N-[2,4-dichlorobenzoyl]-4-chlorophenylsulfonamide]
5 | 12.4 | O=C(NS(=O)(=O)c1ccc(O)cc1)c1ccc(Cl)cc1Cl [Example 82, N-[2,4-dichlorobenzoyl]-4-hydroxyphenyl-sulfonamide]
6 | 9.5 | Cc1cccc(S(=O)(=O)NC(=O)c2ccc(Cl)cc2C)c1 [Example 55, N-[2-methyl-4-chlorobenzoyl]-3-methylphenylsulfonamide]
7 | 33.6 | N=C(NS(=O)(=O)c1ccc(F)c(Cl)c1)c1ccc(Cl)cc1 [Example 115, N-[3-chloro-4-fluorophenylsulfonyl]-4-chlorobenzamidine]
8 | 7 | COc1c(C)cc(S(=O)(=O)NC(=O)c2ccc(Cl)cc2Cl)cc1C [Example 97, N-[2,4-dichlorobenzoyl]-4-methoxy-3,5-dimethylphenylsulfonamide]
9 | 2.4 | COc1ccc(S(=O)(=O)NC(=O)c2ccc([N+](=O)[O-])cc2Cl)cc1 [Example 20, N-[2-chloro-4-nitrobenzoyl]-4-methoxyphenylsulfonamide]
10 | 15.5 | Cc1cccc(S(=O)(=O)NC(=O)c2ccc(Br)cc2C)c1 [Example 37, N-[2-methyl-4-bromobenzoyl]-3-methylphenylsulfonamide]
11 | 11.9 | O=C(NS(=O)(=O)c1ccc([N+](=O)[O-])cc1)c1ccc(Cl)cc1Cl [Example 103, N-[2,4-dichlorobenzoyl]-4-nitrophenylsulfonamide]
12 | 1.6 | Cc1ccc(S(=O)(=O)NC(=O)c2ccc(Cl)cc2Cl)cc1 [Example 86, N-[2,4-dichlorobenzoyl]-4-methylphenylsulfonamide]
13 | 24.5 | O=C(NS(=O)(=O)c1ccc(-c2ccco2)cc1)c1ccc(Cl)cc1Cl [Example 121, N-[2,4-dichloro-benzoyl]-4-furan-2-yl-phenylsulfonamide]
14 | 6.1 | O=C(NS(=O)(=O)c1cccc(F)c1)c1ccc(Cl)cc1Cl [Example 26, N-[2,4-dichlorobenzoyl]-3-fluorophenylsulfonamide]
15 | 17 | Cc1cc(Br)ccc1C(=O)NS(=O)(=O)c1ccc(F)c(Cl)c1 [Example 35, N-[2-methyl-4-bromobenzoyl]-3-chloro-4-fluorophenylsulfonamide]
16 | 18.1 | Cc1cc(Cl)ccc1C(=O)NS(=O)(=O)c1ccc(Cl)cc1 [Example 93, N-[2-methyl-4-chlorobenzoyl]-4-chlorophenylsulfonamide]
17 | 18.5 | O=C(NS(=O)(=O)c1ccc(-c2ccoc2)cc1)c1ccc(Cl)cc1Cl [Example 126, N-[2,4-dichlorobenzoyl]-4-fur-3-yl-phenylsulfonamide]
18 | 11.3 | O=C(NS(=O)(=O)c1ccc(C(F)(F)F)cc1)c1ccc(Cl)cc1Cl [Example 81, N-[2,4-dichlorobenzoyl]-4-trifluoromethyl-phenylsulfonamide]
19 | 5.6 | O=C(NS(=O)(=O)c1ccc(-c2cccc3cccnc23)cc1)c1ccc(Cl)cc1Cl [Example 124, N-[2,4-dichlorobenzoyl]-4-quinolin-8-yl-phenylsulfonamide]
20 | 7.8 | COC(=O)c1cc(S(=O)(=O)NC(=O)c2ccc(Cl)cc2Br)ccc1OC [Example 32, N-[2-bromo-4-chlorobenzoyl]-3-methoxycarbonyl-4-methoxyphenylsulfonamide]
21 | 34.7 | O=C(NS(=O)(=O)c1ccc(OC(F)(F)F)cc1)c1ccc(Cl)cc1Cl [Example 96, N-[2,4-dichlorobenzoyl]-4-trifluoromethoxyphenyl-sulfonamide]
22 | 5.2 | Cc1ccc(S(=O)(=O)NC(=O)c2ccc(C)cc2C(F)(F)F)cc1 [Example 79, N-[2-trifluoromethyl-4-methylbenzoyl]-4-methylphenyl-sulfonamide]
23 | 11.2 | O=C(NS(=O)(=O)c1ccc(F)c(F)c1)c1ccc(C(F)(F)F)cc1C(F)(F)F [Example 53, N-[2,4-bis-trifluoromethylbenzoyl]-3,4-difluorophenyl-sulfonamide]
24 | 18.7 | COc1cc(C)ccc1S(=O)(=O)NC(=O)c1ccc(Cl)cc1C [Example 44, N-[2-methyl-4-chlorobenzoyl]-2-methoxy-4-methylphenylsulfonamide]

Row | IC50 [µM] | Compound
25 | 16.9 | CCc1ccc(S(=O)(=O)NC(=O)c2ccc(Cl)cc2C)cc1 [Example 70, N-[2-methyl-4-chlorobenzoyl]-4-ethylphenylsulfonamide]
26 | 17.4 | O=C(NS(=O)(=O)c1ccc(Cl)c(Cl)c1)c1ccc(Cl)cc1Cl [Example 92, N-[2,4-dichlorobenzoyl]-3,4-dichlorophenylsulfonamide]
27 | 18.2 | CC(C)c1ccc(S(=O)(=O)NC(=O)c2ccc(Br)cc2Cl)cc1 [Example 64, N-[2-chloro-4-bromobenzoyl]-4-isopropylphenyl-sulfonamide]
28 | 3.3 | Cc1cc(Cl)ccc1C(=O)NS(=O)(=O)c1ccc(F)cc1 [Example 42, N-[2-methyl-4-chlorobenzoyl]-4-fluorophenylsulfonamide]
29 | 6.6 | Cc1cc(Cl)ccc1C(=O)NS(=O)(=O)c1ccccc1 [Example 60, N-[2-methyl-4-chlorobenzoyl]-phenylsulfonamide]
30 | 5 | Cc1cc(Cl)ccc1C(=O)NS(=O)(=O)c1ccc(F)c(F)c1 [Example 57, N-[2-methyl-4-chlorobenzoyl]-3,4-difluorophenyl-sulfonamide]
31 | 14.5 | COc1ccc(S(=O)(=O)NC(=O)c2ccc(Cl)cc2C)cc1 [Example 41, N-[2-methyl-4-chlorobenzoyl]-4-methoxyphenylsulfonamide]
32 | 37.1 | O=C(NS(=O)(=O)c1ccc(Br)c(Br)c1)c1ccc(Cl)cc1Cl [Example 24, N-[2,4-dichlorobenzoyl]-3,4-dibromophenylsulfonamide]
33 | 12.1 | O=C(NS(=O)(=O)c1ccc(Cl)cc1)c1ccc([N+](=O)[O-])cc1Cl [Example 10, N-[2-chloro-4-nitrobenzoyl]-4-chlorophenylsulfonamide]
34 | 13.9 | O=C(NS(=O)(=O)c1ccc(I)cc1)c1ccc(Br)cc1Br [Example 38, N-[2,4-dibromobenzoyl]-4-iodophenylsulfonamide]
35 | 15.9 | Cc1ccc(S(=O)(=O)NC(=O)c2ccc(Cl)cc2C)cc1 [Example 23, N-[2-methyl-4-chlorobenzoyl]-4-methylphenylsulfonamide]
36 | 4.3 | CS(=O)(=O)Oc1ccc(S(=O)(=O)NC(=O)c2ccc(Cl)cc2Cl)cc1 [Example 95, N-[2,4-dichlorobenzoyl]-4-methylsulfonyloxyphenyl-sulfonamide]
37 | 4.8 | CC(C)(C)c1ccc(S(=O)(=O)NC(=O)c2ccc(Cl)cc2Cl)cc1 [Example 88, N-[2,4-dichlorobenzoyl]-4-tert-butylphenylsulfonamide]
38 | 13 | CN(C)c1ccc(S(=O)(=O)NC(=O)c2ccc(Cl)cc2Cl)cc1 [Example 98, N-[2,4-dichlorobenzoyl]-4-dimethylaminophenyl-sulfonamide]
39 | 22.2 | Cc1cc(Cl)ccc1C(=O)NS(=O)(=O)c1ccc(Cl)c(Cl)c1 [Example 104, N-[2-methyl-4-chlorobenzoyl]-3,4-dichlorophenylsulfonamide]
40 | 12.4 | O=C(NS(=O)(=O)c1ccc(F)cc1)c1ccc([N+](=O)[O-])cc1Cl [Example 101, N-[2-chloro-4-nitrobenzoyl]-4-fluoro-phenylsulfonamide]
41 | 9.2 | Cc1cc(Br)ccc1C(=O)NS(=O)(=O)c1ccc(Br)cc1 [Example 100, N-[2-methyl-4-bromobenzoyl]-4-bromophenylsulfonamide]
42 | 9.3 | COc1ccc(S(=O)(=O)NC(=O)c2ccc(Br)cc2Cl)cc1 [Example 18, N-[2-chloro-4-bromobenzoyl]-4-methoxyphenylsulfonamide]
43 | 30.4 | O=C(NS(=O)(=O)c1ccc(Cl)c(Cl)c1)c1ccc([N+](=O)[O-])cc1Cl [Example 21, N-[2-chloro-4-nitrobenzoyl]-3,4-dichlorophenyl-sulfonamide]
44 | 5.5 | O=C(NS(=O)(=O)c1ccccc1)c1ccc(Br)cc1Cl [Example 11, N-[2-chloro-4-bromobenzoyl]-phenylsulfonamide]
45 | 1.7 | O=C(NS(=O)(=O)c1ccc(F)c(Cl)c1)c1ccc(Cl)cc1Cl [Example 9, N-[2,4-dichlorobenzoyl]-3-chloro-4-fluorophenylsulfonamide]

tested on: not given; assay: not given; settings: not given

Row | melting point [°C] | Compound
46 | 155 to 157 | O=C(NS(=O)(=O)c1ccc(O)cc1)c1ccc(Cl)cc1Cl [Example 117, N-[2,4-dichlorobenzoyl]-4-hydroxyphenylsulfonamide]
